Assay results reported in patent US9238658B2, “Substituted piperidinyl-carboxamide derivatives useful as SCD 1 inhibitors” (Janssen Pharmaceutica NV, priority 2011, dated 2016).

Biological target: SCD1 (Rattus norvegicus (Rat), UniProt P07308)
Assay: SCD1 enzymatic assay in rat liver microsomes (RLM)
Type: biochemical
Conditions: for inhibition at 1 µM: 1 μM test compound
Protocol: Step 1: Preparation of Rat Liver Microsome (RLM)
Sprague Dawley rats from Charles River (200-225 g) underwent 2-cycle of fast-re-feeding (24-hour fast followed by 24-hour feeding with fat-free high carbohydrate diet, Research Diet, D00042802). The livers were removed and homogenized 1:4 (w/v) with pre-chilled, homogenizing buffer (10 mM Tris-HCl, 0.25 M sucrose, 1 mM EDTA, pH 7.4, supplemented with protease inhibitor cocktail). The homogenate was spun at 12,000×g for 15 min at 4° C. The supernatant was then re-centrifuged at 100,000×g for 60 min at 4° C. The pellet was re-suspended in 2 ml pre-chilled […] potassium phosphate buffer, pH 7.2, 10 mM EDTA at a concentration of 20 mg/ml. The resulting rat liver microsome (RLM) preparation was stored at […].
Step 2: SCD1 Enzymatic Assay in RLM:
The SCD1 enzymatic assay was done in a volume of 50 μL using 10 μg of RLM (prepared as described above) in a 96-well polypropylene plate (enzyme reaction buffer contains 0.1 M K-Phosphate Buffer, 10 mM ATP, 6 mM MgCl2, 1 mM CoA, 1 mM β-NADH, 1.6 mM L-glutathione, 20 μM Stearoyl-CoA). Stearoyl-[9,10-^3H]—CoA (ARC-0390, 1 mCi/mL, 60 Ci/mmol,) was added at a final concentration of 2 μCi/mL. Test compound was then added to the reaction mixture at the selected concentration. After incubation at room temperature for 2 hours, 5 μL 1 N HCl was added to stop the reaction, followed by addition of 25 μL of 10% charcoal. The reaction mixture was then transferred to 96-well Multiscreen plate (Millipore, Cat# MSFCN6B50). [^3H2O] was collected into Opti-plate (PE, Cat #6005290) by centrifuge, at 1,000 rpm for 2 minutes. 150 μL Microscint 40 (PE, cat #6013641) was then added to each well and counted on Topcount for [^3H] counts per minute (cpm). The measured cpm values were fitted with Sigmoidal dose-response curve fit with Graphpad Prism.

Sequence of SCD1 (P07308 whole entry): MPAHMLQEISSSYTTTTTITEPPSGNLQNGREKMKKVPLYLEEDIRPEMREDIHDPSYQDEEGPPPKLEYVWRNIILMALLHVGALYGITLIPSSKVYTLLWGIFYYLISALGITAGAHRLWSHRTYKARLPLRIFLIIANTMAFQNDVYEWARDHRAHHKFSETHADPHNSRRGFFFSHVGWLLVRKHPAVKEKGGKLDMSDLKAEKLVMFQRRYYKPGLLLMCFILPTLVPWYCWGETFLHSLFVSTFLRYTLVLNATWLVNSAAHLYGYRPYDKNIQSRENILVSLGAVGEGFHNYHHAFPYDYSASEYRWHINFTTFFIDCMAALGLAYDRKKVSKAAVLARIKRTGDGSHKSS

SMILES | inhibition at 1 µM [%] | IC50 [nM]
Cc1csc(NC(=O)N2CCC(c3c[nH]c4ccccc34)CC2)n1 [Compound 65, 4-(1H-indol-3-yl)-N-(4-methylthiazol-2-yl)piperidine-1-carboxamide] | 2 | 
Cc1csc(NC(=O)N2CCC(c3noc4cc(F)ccc34)CC2)n1 [Compound 11, 4-(6-fluorobenzo[d]isoxazol-3-yl)-N-(4-methylthiazol-2-yl)piperidine-1-carboxamide] | 40 | 
CCOC(=O)c1ccc(NC(=O)N2CCC(N3CCc4ccc(F)cc43)CC2)cc1 [Compound 42, ethyl 4-(4-(6-fluoroindolin-1-yl)piperidine-1-carboxamido)benzoate] | 21 | 
CCOC(=O)c1csc(NC(=O)N2CCC(N3CCc4ccc(F)cc43)CC2)n1 [Compound 22, ethyl 2-(4-(6-fluoroindolin-1-yl)piperidine-1-carboxamido)thiazole-4-carboxylate] | 8 | > 1000
NC(=O)c1cc(NC(=O)N2CCC(N3CCc4ccc(F)cc43)CC2)ccc1CO [Compound 48, N-(3-carbamoyl-4-(hydroxymethyl)phenyl)-4-(6-fluoroindolin-1-yl)piperidine-1-carboxamide] | 55 | 909
O=C(Nc1ccc(CO)cc1)N1CCC(N2CCc3ccc(F)cc32)CC1 [Compound 44, 4-(6-fluoroindolin-1-yl)-N-(4-(hydroxymethyl)phenyl)piperidine-1-carboxamide] | 31 | 
CNC(=O)Cc1csc(NC(=O)N2CCC(N3CCc4ccc(F)cc43)CC2)n1 [Compound 28, 4-(6-fluoroindolin-1-yl)-N-(4-(2-(methylamino)-2-oxoethyl)thiazol-2-yl)piperidine-1-carboxamide] | 22 | > 1000
COC(=O)Cc1cnc(NC(=O)N2CCC(N3CCc4ccc(F)cc43)CC2)s1 [Compound 49, methyl 2-(2-(4-(6-fluoroindolin-1-yl)piperidine-1-carboxamido)thiazol-5-yl)acetate] | 48 | 
NC(=O)c1csc(NC(=O)N2CCC(N3CCc4ccc(F)cc43)CC2)n1 [Compound 26, 2-(4-(6-fluoroindolin-1-yl)piperidine-1-carboxamido)thiazole-4-carboxamide] | 62 | 682
CCN1CCc2nc(NC(=O)N3CCC(N4CCc5ccc(F)cc54)CC3)sc2C1 [Compound 53, N-(5-ethyl-4,5,6,7-tetrahydrothiazolo[5,4-c]pyridin-2-yl)-4-(6-fluoroindolin-1-yl)piperidine-1-carboxamide] | 34 | 
CNC(=O)c1cccc(NC(=O)N2CCC(c3noc4cc(F)ccc34)CC2)c1 [Compound 10, 4-(6-fluorobenzo[d]isoxazol-3-yl)-N-(3-(methylcarbamoyl)phenyl)piperidine-1-carboxamide] | 23 | 
CCOC(=O)c1cccc(NC(=O)N2CCC(N3CCc4ccc(F)cc43)CC2)c1 [Compound 41, ethyl 3-(4-(6-fluoroindolin-1-yl)piperidine-1-carboxamido)benzoate] | 53 | 534
COC(=O)Cc1cnc(NC(=O)N2CCC(c3noc4ccc(F)cc34)CC2)s1 [Compound 52, methyl 2-(2-(4-(5-fluorobenzo[d]isoxazol-3-yl)piperidine-1-carboxamido)thiazol-5-yl)acetate] | 15 | 
CCCCc1cc(NC(=O)N2CCC(c3noc4ccc(F)cc34)CC2)ccc1F [Compound 8, N-(3-butyl-4-fluorophenyl)-4-(5-fluorobenzo[d]isoxazol-3-yl)piperidine-1-carboxamide] | 12 | 
CCCc1nc2ccc(NC(=O)N3CCC(c4noc5ccc(F)cc45)CC3)cc2o1 [Compound 7, 4-(5-fluorobenzo[d]isoxazol-3-yl)-N-(2-propylbenzo[d]oxazol-6-yl)piperidine-1-carboxamide] | 55 | 1010
CC(C)(C)OC(=O)N1CCc2nc(NC(=O)N3CCC(N4CCc5ccc(F)cc54)CC3)sc2C1 [Compound 34, tert-butyl 2-(4-(6-fluoroindolin-1-yl)piperidine-1-carboxamido)-6,7-dihydrothiazolo[5,4-c]pyridine-5(4H)-carboxylate] | 35 | 
CNC(=O)c1cccc(NC(=O)N2CCC(N3C(=O)Cc4ccccc43)CC2)c1 [Compound 1, N-(3-(methylcarbamoyl)phenyl)-4-(2-oxoindolin-1-yl)piperidine-1-carboxamide] | 7 | 
CC(=O)N1CCc2nc(NC(=O)N3CCC(N4CCc5ccc(F)cc54)CC3)sc2C1 [Compound 40, N-(5-acetyl-4,5,6,7-tetrahydrothiazolo[5,4-c]pyridin-2-yl)-4-(6-fluoroindolin-1-yl)piperidine-1-carboxamide] | 46 | 
CCOC(=O)Cc1csc(NC(=O)N2CCC(c3noc4ccc(F)cc34)CC2)n1 [Compound 51, ethyl 2-(2-(4-(5-fluorobenzo[d]isoxazol-3-yl)piperidine-1-carboxamido)thiazol-4-yl)acetate] | 68 | 579
CC(C)(C)[Si](C)(C)OC1CCc2nc(NC(=O)N3CCC(N4CCc5ccc(F)cc54)CC3)sc2C1 (stereo not drawn) [Compound 32, N-(6-((tert-butyldimethylsilyl)oxy)-4,5,6,7-tetrahydrobenzo[d]thiazol-2-yl)-4-(6-fluoroindolin-1-yl)piperidine-1-carboxamide] | 31 | 
CNC(=O)c1cccc(NC(=O)N2CCC(c3c[nH]c4ccccc34)CC2)c1 [Compound 64, 4-(1H-indol-3-yl)-N-(3-(methylcarbamoyl)phenyl)piperidine-1-carboxamide] | 15 | 
NC(=O)Cc1csc(NC(=O)N2CCC(N3CCc4ccc(F)cc43)CC2)n1 [Compound 30, N-(4-(2-amino-2-oxoethyl)thiazol-2-yl)-4-(6-fluoroindolin-1-yl)piperidine-1-carboxamide] | 57 | 845
NC(=O)CN1CCc2nc(NC(=O)N3CCC(N4CCc5ccc(F)cc54)CC3)sc2C1 [Compound 57, N-(5-(2-amino-2-oxoethyl)-4,5,6,7-tetrahydrothiazolo[5,4-c]pyridin-2-yl)-4-(6-fluoroindolin-1-yl)piperidine-1-carboxamide] | 38 | 
CCOC(=O)CN1CCc2nc(NC(=O)N3CCC(N4CCc5ccc(F)cc54)CC3)sc2C1 [Compound 56, ethyl 2-(2-(4-(6-fluoroindolin-1-yl)piperidine-1-carboxamido)-6,7-dihydrothiazolo[5,4-c]pyridin-5(4H)-yl)acetate] | 42 | 
CNC(=O)c1csc(NC(=O)N2CCC(N3CCc4ccc(F)cc43)CC2)n1 [Compound 23, 2-(4-(6-fluoroindolin-1-yl)piperidine-1-carboxamido)-N-methylthiazole-4-carboxamide] | 20 | > 1000
O=C(Nc1ccc2c(c1)CNCC2)N1CCC(N2CCc3ccc(F)cc32)CC1 [Compound 46, 4-(6-fluoroindolin-1-yl)-N-(1,2,3,4-tetrahydroisoquinolin-7-yl)piperidine-1-carboxamide] | 27 | 
O=C(Nc1nc(CN2CCCCC2)cs1)N1CCC(N2CCc3ccc(F)cc32)CC1 [Compound 31, 4-(6-fluoroindolin-1-yl)-N-(4-(piperidin-1-ylmethyl)thiazol-2-yl)piperidine-1-carboxamide] | 44 | 
